In brackets after ≈: the same amount, converted by molar mass.
Experiments:
Homo sapiens [1] = species on record: Homo sapiens; test: Selectivity index, ratio of IC50 for GST-tagged human RET expressed in baculovirus to IC50 for recombinant N-Terminal GST-tagged human RET V804M mutant (658 to end residues)
Homo sapiens [2] = species on record: Homo sapiens; test: Selectivity index, ratio of IC50 for N-terminal His6-tagged recombinant human KDR (790 to end residue) expressed in baculovirus in Sf21 insect cells to IC50 for recombinant N-Terminal GST-tagged human RET V804M mutant (658 to end residues)
[3] = target: Proto-oncogene tyrosine-protein kinase receptor Ret (Homo sapiens, UniProt P07949, V804M)
Chain of Proto-oncogene tyrosine-protein kinase receptor Ret (P07949 29-1114 V804M limits assumed): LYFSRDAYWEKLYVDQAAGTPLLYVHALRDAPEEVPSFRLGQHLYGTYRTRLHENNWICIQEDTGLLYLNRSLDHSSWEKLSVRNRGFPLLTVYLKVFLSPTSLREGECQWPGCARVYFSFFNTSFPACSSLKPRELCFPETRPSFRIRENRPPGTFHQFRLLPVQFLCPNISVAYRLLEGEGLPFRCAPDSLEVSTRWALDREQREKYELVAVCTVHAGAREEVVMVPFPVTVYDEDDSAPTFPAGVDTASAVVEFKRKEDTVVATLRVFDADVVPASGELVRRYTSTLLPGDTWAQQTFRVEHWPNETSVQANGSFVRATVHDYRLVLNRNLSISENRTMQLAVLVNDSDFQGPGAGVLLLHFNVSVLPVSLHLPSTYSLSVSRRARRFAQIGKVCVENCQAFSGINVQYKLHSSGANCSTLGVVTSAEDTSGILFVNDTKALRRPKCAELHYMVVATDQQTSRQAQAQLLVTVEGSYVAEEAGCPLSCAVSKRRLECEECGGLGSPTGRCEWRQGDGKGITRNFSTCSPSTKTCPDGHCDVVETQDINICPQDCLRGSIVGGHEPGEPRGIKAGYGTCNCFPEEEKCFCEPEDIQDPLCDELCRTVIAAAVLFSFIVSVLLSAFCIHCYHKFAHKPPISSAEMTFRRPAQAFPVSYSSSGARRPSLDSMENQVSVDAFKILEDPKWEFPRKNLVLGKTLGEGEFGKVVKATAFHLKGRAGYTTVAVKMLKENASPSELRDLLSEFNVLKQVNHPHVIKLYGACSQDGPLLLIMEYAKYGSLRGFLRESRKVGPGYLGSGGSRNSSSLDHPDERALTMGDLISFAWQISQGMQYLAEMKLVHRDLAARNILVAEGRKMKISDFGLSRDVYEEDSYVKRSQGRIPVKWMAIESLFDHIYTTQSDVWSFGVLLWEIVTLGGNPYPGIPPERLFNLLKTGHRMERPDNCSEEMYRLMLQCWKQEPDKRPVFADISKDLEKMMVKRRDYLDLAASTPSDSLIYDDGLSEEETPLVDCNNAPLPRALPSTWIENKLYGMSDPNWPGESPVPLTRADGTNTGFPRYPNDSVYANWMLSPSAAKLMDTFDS

Homo sapiens [4] = species on record: Homo sapiens; test: Selectivity index, ratio of IC50 for RET (unknown origin) expressed in BaF3 cells to IC50 for RET V804M mutant (unknown origin) expressed […] cells; format: cell-based
Homo sapiens [5] = species on record: Homo sapiens; test: Selectivity index, ratio of IC50 for KDR (unknown origin) expressed in BaF3 cells to IC50 for RET V804M mutant (unknown origin) expressed […] cells; format: cell-based
[6] = Kinetic solubility of compound; format: physicochemical; conditions: read-out: Kinetic_solubility
[7] = Apparent permeability in human Caco2 cells; format: ADME, cell-based; conditions: Caco-2
[8] = Metabolic stability in mouse liver microsomes assessed as intrinsic clearance; format: ADME, Microsome; conditions: read-out: CLH
[9] = Efflux ratio of apparent permeability in human Caco2 cells; format: ADME, cell-based; conditions: Caco-2

SMILES: CC(=O)Nc1cccc(-c2cnn3ccc(NCc4ccncc4)nc23)c1
- Ratio IC50 (Homo sapiens [1]): 4
- Ratio IC50 (Homo sapiens [2]): 22
- IC50 [3]: 1600 nM

SMILES: c1cc(CNc2ccn3ncc(-c4ccc5c(c4)OCO5)c3n2)ccn1
- Ratio IC50 (Homo sapiens [1]): 0.64
- Ratio IC50 (Homo sapiens [2]): 27
- Ratio IC50 (Homo sapiens [4]): 2.2
- Ratio IC50 (Homo sapiens [5]): 6.2
- solubility kinetic [6]: 30 µM (≈ 10.4 µg/mL)
- IC50 [3]: 290 nM

SMILES: c1cc(CNc2ccn3ncc(-c4ccc5cn[nH]c5c4)c3n2)ccn1
- Ratio IC50 (Homo sapiens [1]): 18
- Ratio IC50 (Homo sapiens [2]): 83
- Ratio IC50 (Homo sapiens [4]): 1.9
- Ratio IC50 (Homo sapiens [5]): 1.9
- IC50 [3]: 300 nM

SMILES: c1ccc(-c2cnn3ccc(NCc4ccncc4)nc23)cc1
- Ratio IC50 (Homo sapiens [1]): 2.4
- Ratio IC50 (Homo sapiens [2]): 0.96
- IC50 [3]: 1140 nM

SMILES: CN(C)CCNc1ccn2ncc(-c3ccc4c(c3)OCO4)c2n1
- Ratio IC50 (Homo sapiens [1]): 21
- Ratio IC50 (Homo sapiens [2]): 540
- Ratio IC50 (Homo sapiens [4]): 9.8
- Ratio IC50 (Homo sapiens [5]): 13
- IC50 [3]: 91 nM

SMILES: CN(C)CCNc1ccn2ncc(-c3ccc(C(N)=O)cc3)c2n1
- Ratio IC50 (Homo sapiens [1]): 4.7
- Ratio IC50 (Homo sapiens [2]): 54
- Ratio IC50 (Homo sapiens [4]): 0.3
- Ratio IC50 (Homo sapiens [5]): 0.83
- IC50 [3]: 350 nM

SMILES: c1cc2c(cc1-c1cnn3ccc(NCCN4CCCCC4)nc13)OCO2
- Ratio IC50 (Homo sapiens [1]): 5.3
- Ratio IC50 (Homo sapiens [2]): 34
- IC50 [3]: 660 nM

SMILES: CS(=O)(=O)Nc1ccc(-c2cnn3ccc(NCc4ccncc4)nc23)cc1
- Ratio IC50 (Homo sapiens [1]): 0.28
- Ratio IC50 (Homo sapiens [2]): 29
- IC50 [3]: 1500 nM

SMILES: NC(=O)c1ccc(-c2cnn3ccc(NCc4ccncc4)nc23)cc1
- Ratio IC50 (Homo sapiens [1]): 3.7
- Ratio IC50 (Homo sapiens [2]): 110
- Ratio IC50 (Homo sapiens [4]): 0.89
- Ratio IC50 (Homo sapiens [5]): 2.3
- IC50 [3]: 20 nM

SMILES: c1cc2c(cc1-c1cnn3ccc(NCC4CCNCC4)nc13)OCO2
- Ratio IC50 (Homo sapiens [1]): 1.2
- Ratio IC50 (Homo sapiens [2]): 64
- Ratio IC50 (Homo sapiens [4]): 0.85
- Ratio IC50 (Homo sapiens [5]): 2.6
- IC50 [3]: 200 nM

SMILES: c1ccc(CNc2ccn3ncc(-c4ccc5c(c4)OCO5)c3n2)nc1
- Ratio IC50 (Homo sapiens [1]): 14
- Ratio IC50 (Homo sapiens [2]): 100
- Ratio IC50 (Homo sapiens [4]): 3.1
- Ratio IC50 (Homo sapiens [5]): 7.6
- IC50 [3]: 39 nM

SMILES: CN(C)C(=O)c1ccc(-c2cnn3ccc(NCc4ccncc4)nc23)cc1
- Ratio IC50 (Homo sapiens [1]): 1.8
- Ratio IC50 (Homo sapiens [2]): 3.9
- IC50 [3]: 7600 nM

SMILES: NC(=O)c1ccc(-c2cnn3ccc(NCc4cccnc4)nc23)cc1
- Ratio IC50 (Homo sapiens [1]): 13
- Ratio IC50 (Homo sapiens [2]): 19
- Ratio IC50 (Homo sapiens [4]): 0.85
- Ratio IC50 (Homo sapiens [5]): 1.9
- IC50 [3]: 51 nM

SMILES: CN(C)CCCNc1ccn2ncc(-c3ccc4c(c3)OCO4)c2n1
- Ratio IC50 (Homo sapiens [1]): 16
- Ratio IC50 (Homo sapiens [2]): 410
- Ratio IC50 (Homo sapiens [4]): 32
- Ratio IC50 (Homo sapiens [5]): 76
- solubility kinetic [6]: > 100 µM
- Papp [7]: 22.8 ×10⁻⁶ cm/s
- microsomal CLint [8]: 62 µL/min/mg
- efflux ratio [9]: 1.4
- IC50 [3]: 19 nM

SMILES: OCCNc1ccn2ncc(-c3ccc4c(c3)OCO4)c2n1
- Ratio IC50 (Homo sapiens [1]): 15
- Ratio IC50 (Homo sapiens [2]): 19
- Ratio IC50 (Homo sapiens [4]): 1.5
- Ratio IC50 (Homo sapiens [5]): 1.5
- IC50 [3]: 130 nM

SMILES: c1ccc(CNc2ccn3ncc(-c4ccc5c(c4)OCO5)c3n2)cc1
- Ratio IC50 (Homo sapiens [1]): 0.16
- Ratio IC50 (Homo sapiens [2]): 2.3
- IC50 [3]: 29000 nM

SMILES: O=C(O)c1ccc(-c2cnn3ccc(NCc4ccncc4)nc23)cc1
- Ratio IC50 (Homo sapiens [1]): 1.2
- Ratio IC50 (Homo sapiens [2]): 1.8
- IC50 [3]: 560 nM

SMILES: NS(=O)(=O)c1ccc(-c2cnn3ccc(NCc4ccncc4)nc23)cc1
- Ratio IC50 (Homo sapiens [1]): 1.3
- Ratio IC50 (Homo sapiens [2]): 220
- Ratio IC50 (Homo sapiens [4]): 1
- Ratio IC50 (Homo sapiens [5]): 1
- IC50 [3]: 360 nM

SMILES: c1cc2c(cc1-c1cnn3ccc(NC4CCNCC4)nc13)OCO2
- Ratio IC50 (Homo sapiens [1]): 1.2
- Ratio IC50 (Homo sapiens [2]): 17
- IC50 [3]: 880 nM

SMILES: c1cc(Nc2ccn3ncc(-c4ccc5c(c4)OCO5)c3n2)ccn1
- Ratio IC50 (Homo sapiens [1]): 2.1
- Ratio IC50 (Homo sapiens [2]): 2.1
- IC50 [3]: 63000 nM

SMILES: NC(=O)c1cccc(-c2cnn3ccc(NCc4ccncc4)nc23)c1
- Ratio IC50 (Homo sapiens [2]): 8
- IC50 [3]: 4300 nM

SMILES: NC(=O)c1ccc(-c2cnn3ccc(NCc4ccccn4)nc23)cc1
- Ratio IC50 (Homo sapiens [1]): 19
- Ratio IC50 (Homo sapiens [2]): 22
- Ratio IC50 (Homo sapiens [4]): 0.9
- Ratio IC50 (Homo sapiens [5]): 2
- IC50 [3]: 44 nM

SMILES: CC(=O)Nc1ccc(-c2cnn3ccc(NCc4ccncc4)nc23)cc1
- Ratio IC50 (Homo sapiens [1]): 2.6
- Ratio IC50 (Homo sapiens [2]): 4.4
- IC50 [3]: 6700 nM
